The source made the active and inactive calls. The rule behind the calls is not given here.
Tests used:
HepG2 = experiment: Antiproliferative activity against human HepG2 cells after 24 hrs by MTT assay; type: functional, cell-based; conditions: HepG2, 24 h
MDA-MB-231 = experiment: Antiproliferative activity against human MDA231 cells after 24 hrs by MTT assay; type: functional, cell-based; conditions: MDA-MB-231, 24 h
HeLa [1] = experiment: Antiproliferative activity against human HeLa cells after 24 hrs by MTT assay; type: functional, cell-based
A549 = experiment: Antiproliferative activity against human A549 cells after 24 hrs by MTT assay; type: functional, cell-based; conditions: A549, 24 h
L02 = experiment: Antiproliferative activity against human LO2 cells after 24 hrs by MTT assay; type: cell-based; conditions: L02, 24 h
HEK-293T = experiment: Antiproliferative activity against human 293T cells after 24 hrs by MTT assay; type: cell-based
HeLa [2] = experiment: Inhibition of microtubule polymerization in human HeLa cells at 0.5 uM after 24 hrs by rhodamine/DAPI staining-based confocal microscopic analysis; type: cell-based
Homo sapiens [3] = organism: Homo sapiens; experiment: Inhibition of microtubule polymerization (unknown origin) at 0.5 uM after 24 hrs by immunoblot
HeLa [4] = experiment: Induction of microtubule polymerization in human HeLa cells assessed as bundle like formation at 0.5 uM after 24 hrs by rhodamine/DAPI staining-based confocal microscopic analysis; type: cell-based
Homo sapiens [5] = organism: Homo sapiens; experiment: Induction of microtubule polymerization (unknown origin) at 0.5 uM after 24 hrs by immunoblot

Compound | IC50 (HepG2) | IC50 (MDA-MB-231) | IC50 (HeLa [1]) | IC50 (A549) | IC50 (L02) | IC50 (HEK-293T) | inhibition (HeLa [2]) | inhibition (Homo sapiens [3]) | Activity (HeLa [4]) | Activity (Homo sapiens [5])
CC(C)=CC[C@@H](OC(=O)CCCC[C@@H]1CCSC(c2ccc(Cl)cc2)S1)C1=CC(=O)c2c(O)ccc(O)c2C1=O (stereo partly drawn) | 6.69 µM | 17.7 µM | 21.4 µM | 7.42 µM | 83.6 µM | 64.7 µM | – | – | – | –
CC(C)=CC[C@@H](OC(=O)CCCC[C@@H]1CCSC(c2c(Cl)cccc2Cl)S1)C1=CC(=O)c2c(O)ccc(O)c2C1=O (stereo partly drawn) | 14.9 µM | 29.2 µM | 8.95 µM | 10.4 µM | 79.8 µM | 69.9 µM | – | – | – | –
COc1cc2c(c(OC)c1OC)-c1ccc(OC)c(=O)cc1[C@@H](NC(C)=O)CC2 [COLCHICINE] | 4.65 µM | 3.89 µM | 2.54 µM | 4.64 µM | 3.01 µM | 6.38 µM | Active | Active | – | –
COc1ccc(C2SCC[C@@H](CCCCC(=O)O[C@H](CC=C(C)C)C3=CC(=O)c4c(O)ccc(O)c4C3=O)S2)cc1 (stereo partly drawn) | 30.1 µM | 18 µM | 16 µM | 20.7 µM | 94.8 µM | 105 µM | – | – | – | –
CC(C)=CC[C@@H](OC(=O)CCCC[C@@H]1CCSC(c2ccc(C)cc2)S1)C1=CC(=O)c2c(O)ccc(O)c2C1=O (stereo partly drawn) | 45.7 µM | 11.9 µM | 11.5 µM | 12.1 µM | 85.6 µM | 88.6 µM | – | – | – | –
CC(C)=CC[C@@H](OC(=O)CCCC[C@@H]1CCSC(c2ccc(Cl)cc2Cl)S1)C1=CC(=O)c2c(O)ccc(O)c2C1=O (stereo partly drawn) | 17.8 µM | 28 µM | 9.17 µM | 17.5 µM | 121 µM | 90.1 µM | – | – | – | –
CC(C)=CC[C@@H](OC(=O)CCCC[C@@H]1CCSC(c2ccccc2Cl)S1)C1=CC(=O)c2c(O)ccc(O)c2C1=O (stereo partly drawn) | 11.3 µM | 20.6 µM | 16.5 µM | 16.8 µM | 95.8 µM | 78 µM | – | – | – | –
CC(C)=CC[C@@H](OC(=O)CCCC[C@@H]1CCSC(c2cccc(C(F)(F)F)c2)S1)C1=CC(=O)c2c(O)ccc(O)c2C1=O (stereo partly drawn) | 4.53 µM | 35.1 µM | 20.2 µM | 19.6 µM | 136 µM | 83.9 µM | – | – | – | –
CC(=O)O[C@H]1C(=O)[C@@]2(C)[C@H]([C@H](OC(=O)c3ccccc3)[C@]3(O)C[C@H](OC(=O)[C@H](O)[C@@H](NC(=O)c4ccccc4)c4ccccc4)C(C)=C1C3(C)C)[C@]1(OC(C)=O)CO[C@@H]1C[C@@H]2O | – | – | – | – | – | – | – | – | Active | Active
CC(C)=CC[C@@H](OC(=O)CCCC[C@@H]1CCSC(c2ccccc2C)S1)C1=CC(=O)c2c(O)ccc(O)c2C1=O (stereo partly drawn) | 24.3 µM | 17.4 µM | 14.9 µM | 10 µM | 89.8 µM | 102 µM | – | – | – | –
